Here are results for 34 molecules from ChEMBL document CHEMBL1148809, “Biological evaluation, structure-activity relationships, and three-dimensional quantitative structure-activity relationship studies of dihydro-beta-agarofuran sesquiterpenes as modulators of P-glycoprotein-dependent multidrug resistance” (J Med Chem, 2007).

Structures are written as SMILES.

Data set [1] in a line: Partition coefficient, log P of the compound. In kind it is physicochemical. The settings on record: octanol/water.
Data set [2] deals with ATP-dependent translocase ABCB1 (Homo sapiens, UniProt P08183). Description: (§1) Inhibition of human Pgp-mediated DNR transport in NIH3T3 cells by microplate assay. In kind it is cell-based, Mus musculus.
Sequence of ATP-dependent translocase ABCB1 (P08183 whole entry): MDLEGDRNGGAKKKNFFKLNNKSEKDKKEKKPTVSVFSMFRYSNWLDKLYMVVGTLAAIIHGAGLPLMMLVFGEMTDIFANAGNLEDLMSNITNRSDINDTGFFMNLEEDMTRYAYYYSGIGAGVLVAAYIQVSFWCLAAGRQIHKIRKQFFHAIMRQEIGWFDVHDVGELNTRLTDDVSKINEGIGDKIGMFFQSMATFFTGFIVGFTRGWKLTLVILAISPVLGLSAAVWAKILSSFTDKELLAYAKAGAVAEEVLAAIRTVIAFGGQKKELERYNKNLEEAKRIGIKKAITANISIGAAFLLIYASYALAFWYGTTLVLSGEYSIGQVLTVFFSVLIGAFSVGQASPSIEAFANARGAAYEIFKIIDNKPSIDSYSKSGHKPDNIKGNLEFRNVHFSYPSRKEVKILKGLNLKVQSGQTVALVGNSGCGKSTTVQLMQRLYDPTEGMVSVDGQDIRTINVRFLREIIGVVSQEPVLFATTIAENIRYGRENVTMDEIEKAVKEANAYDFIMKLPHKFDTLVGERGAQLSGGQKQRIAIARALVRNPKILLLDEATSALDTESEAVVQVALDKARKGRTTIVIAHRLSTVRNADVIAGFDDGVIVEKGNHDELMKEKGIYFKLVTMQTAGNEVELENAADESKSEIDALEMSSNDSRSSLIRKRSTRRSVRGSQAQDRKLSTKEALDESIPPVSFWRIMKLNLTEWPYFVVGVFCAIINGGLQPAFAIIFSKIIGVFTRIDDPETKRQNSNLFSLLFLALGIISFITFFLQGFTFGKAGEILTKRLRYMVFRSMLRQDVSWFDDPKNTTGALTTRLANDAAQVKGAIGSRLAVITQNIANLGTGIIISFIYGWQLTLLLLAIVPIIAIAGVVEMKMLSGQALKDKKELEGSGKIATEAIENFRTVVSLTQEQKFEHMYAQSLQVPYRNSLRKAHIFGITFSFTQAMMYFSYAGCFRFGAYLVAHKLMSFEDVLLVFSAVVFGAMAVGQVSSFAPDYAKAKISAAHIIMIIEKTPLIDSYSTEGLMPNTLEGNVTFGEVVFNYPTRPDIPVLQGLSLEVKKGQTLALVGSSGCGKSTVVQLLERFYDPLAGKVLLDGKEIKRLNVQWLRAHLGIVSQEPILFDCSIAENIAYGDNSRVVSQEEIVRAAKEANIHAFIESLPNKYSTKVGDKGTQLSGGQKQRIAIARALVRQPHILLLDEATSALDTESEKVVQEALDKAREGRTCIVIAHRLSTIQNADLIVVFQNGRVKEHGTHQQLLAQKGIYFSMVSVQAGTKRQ
The target in data set [3] is P-gp (ABCB1) (Homo sapiens, UniProt P08183). The description is as §1. In kind it is cell-based, Mus musculus. The settings on record: mouse, NIH3T3 cells expressing human P-gp, probe DNR; read-out: Imax.
Sequence of P-gp (ABCB1) (P08183 whole entry): as above

Broadly, the logP is a log measure of how a compound divides between an organic and an aqueous phase. One may read the Ki as the dissociation constant of the complex between target and ligand, obtained from inhibition or displacement. Turning to `CC(=O)O[C@H]1[C@@H]2[C@@H](OC(C)=O)[C@]3(OC2(C)C)[C@H](C)C[C@H](OC(=O)c2cccnc2)[C@H](OC(=O)c2ccccc2)[C@@]3(C)[C@H]1OC(=O)c1ccccc1`, in data set [1] (read-out: LogP), the logP came out at 8.7. Besides, the Ki in data set [2] (read-out: Ki) turned out to be 7.72 µM. In addition, the Emax in data set [3] was 92.3%.
The like results for `CC(=O)O[C@H]1[C@H](OC(=O)/C=C/c2ccccc2)[C@@]2(C)[C@@H](OC(=O)c3ccccc3)C[C@@H]3C[C@]2(OC3(C)C)[C@](C)(O)[C@H]1OC(=O)c1cccnc1` were, in that order, 7.6, 2.07 µM and 95.2%.
The like results for `CC(=O)O[C@H]1[C@@H]2C[C@@]3(OC2(C)C)[C@](C)([C@H]1OC(=O)c1ccccc1)[C@@H](OC(=O)c1ccccc1)[C@H](OC(C)=O)[C@H](OC(C)=O)[C@@]3(C)O` were, in that order, 6.8, 1.27 µM and 88.7%.
In turn, `CC(=O)OC[C@]12[C@H](OC(=O)c3ccccc3)[C@H](OC(=O)c3ccccc3)[C@@H]3[C@@H](OC(C)=O)[C@]1(OC3(C)C)[C@H](C)C[C@H](OC(=O)c1ccccc1)[C@@H]2OC(C)=O` displayed a lipophilicity (logP) in data set [1] of 10.3. Also, in data set [2] (read-out: Ki), the Ki is 33.8 µM. Further, the Emax in data set [3] turned out to be 100%.
In the case of `CCCO[C@H]1C[C@@](C)(O)[C@]23OC(C)(C)[C@H](C[C@H](OC(=O)c4ccco4)[C@]2(C)[C@H]1OC(C)=O)[C@H]3OC(=O)c1ccco1`, the log partition coefficient (logP) in data set [1] (read-out: LogP) stood at 6.2. In data set [2] (read-out: Ki), the Ki amounted to 1.13 µM. The Emax in data set [3] amounted to 100%.
`CC(=O)OC[C@@]12[C@@H](OC(=O)c3ccccc3)CC[C@@](C)(O)[C@]13OC(C)(C)[C@H]([C@@H](OC(=O)c1ccccc1)[C@H]2OC(=O)c1ccccc1)[C@H]3OC(C)=O`: the logP in data set [1] amounted to 9.6. In addition, the Ki in data set [2] (read-out: Ki) was found to be 1.22 µM. Besides, in data set [3], the Emax stood at 100%.
The matching figures for `CC(=O)O[C@H]1C[C@@](C)(O)[C@]23OC(C)(C)[C@H]([C@H](OC(=O)c4ccccc4)[C@H](OC(=O)c4ccccc4)[C@]2(C)[C@H]1OC(=O)c1ccccc1)[C@H]3OC(C)=O`: 9.2, 0.91 µM and 84.9%.
With `CC(=O)O[C@H]1[C@@H](OC(=O)c2cccnc2)C[C@@](C)(O)[C@]23OC(C)(C)[C@H](C[C@H](OC(=O)c4ccco4)[C@]12C)[C@H]3OC(=O)c1ccco1`, the log partition coefficient (logP) in data set [1] (read-out: LogP) came out at 6.1. The Ki in data set [2] (read-out: Ki) turned out to be 7.42 µM. Besides, in data set [3], the Emax came to 100%.
The matching figures for `CC(=O)OC[C@]12[C@H](OC(=O)c3ccccc3)C(=O)[C@@H]3[C@@H](OC(C)=O)[C@]1(OC3(C)C)[C@H](C)C[C@H](OC(C)=O)[C@@H]2O`: 5, 18.4 µM and 91.7%.
In the case of `CC(=O)O[C@H]1[C@H](OC(=O)c2ccccc2)[C@@]2(C)[C@@H](OC(=O)/C=C/c3ccccc3)C[C@@H]3[C@@H](OC(C)=O)[C@]2(OC3(C)C)[C@](C)(O)[C@H]1OC(=O)c1cccnc1`, in data set [1] (read-out: LogP), the logP stood at 8. The Ki in data set [2] (read-out: Ki) was 25 µM. Besides, the Emax in data set [3] came out at 100%.
Regarding `CC(=O)O[C@@H]1[C@H](OC(C)=O)[C@@H](C)[C@@]23C[C@@H](C[C@H](OC(=O)/C=C/c4ccccc4)[C@]2(C)[C@H]1OC(=O)c1ccccc1)C(C)(C)O3`, the lipophilicity (logP) in data set [1] (read-out: LogP) is 7.4. The Ki in data set [2] (read-out: Ki) is 2.72 µM. Besides, the Emax in data set [3] came to 75.8%.
The like results for `CC(=O)OC[C@]12[C@@H](OC(=O)c3ccccc3)C[C@@H]3[C@@H](OC(=O)c4ccccc4)[C@]1(OC3(C)C)[C@](C)(O)C[C@H](OC(=O)c1cccnc1)[C@@H]2OC(C)=O` were, in that order, 8.2, 0.58 µM and 100%.
The like results for `CC(=O)OC[C@]12[C@H](OC(C)=O)C(=O)[C@@H]3[C@@H](OC(C)=O)[C@]1(OC3(C)C)[C@H](C)C[C@H](OC(C)=O)[C@@H]2OC(=O)c1ccccc1` were, in that order, 6.1, 5.74 µM and 96.4%.
The like results for `CC(=O)OC[C@]12[C@H](OC(=O)c3ccccc3)C(=O)[C@@H]3[C@@H](OC(C)=O)[C@]1(OC3(C)C)[C@H](C)C[C@H](OC(C)=O)[C@@H]2OC(C)=O` were, in that order, 6.1, 2.54 µM and 62.3%.
As to `CC(=O)O[C@@H]1[C@H]2[C@@H](OC(=O)c3ccccc3)[C@@H](OC(=O)c3ccccc3)[C@]3(CO)[C@@H](OC(=O)c4ccccc4)[C@@H](OC(=O)c4ccccc4)C[C@@H](C)[C@@]13OC2(C)C`, the logP in data set [1] stood at 11.5. The values for the Ki in data set [2] (read-out: Ki) and in data set [2] (read-out: Log Ki (converted)) were 1.3 µM and 1.66 µM, respectively. Moreover, the Emax in data set [3] was determined as 39.5%.
As for `CC(=O)O[C@H]1[C@@H](OC(=O)c2ccco2)C[C@@](C)(O)[C@]23OC(C)(C)[C@H](C[C@H](OC(=O)c4ccco4)[C@]12C)[C@H]3OC(=O)c1ccco1`, the logP in data set [1] (read-out: LogP) was found to be 6.5. The Ki in data set [2] (read-out: Ki) was determined as 2.19 µM. The Emax in data set [3] is 80.5%.
The like results for `CC(=O)O[C@H]1[C@@H]2C[C@@]3(OC2(C)C)[C@](C)([C@H]1OC(=O)c1ccccc1)[C@@H](OC(=O)c1cccnc1)[C@H](OC(C)=O)[C@H](OC(=O)c1ccccc1)[C@@]3(C)O` were, in that order, 7.8, 1.36 µM and 100%.
The matching figures for `CC(=O)OC[C@]12[C@H](OC(C)=O)C(=O)[C@@H]3[C@@H](O)[C@]1(OC3(C)C)[C@](C)(O)C[C@H](OC(C)=O)[C@@H]2OC(C)=O`: 3.3, 7.65 µM and 39%.
The matching figures for `CC(=O)O[C@H]1[C@H](OC(=O)c2ccccc2)[C@@]2(C)[C@@H](OC(=O)c3ccccc3)C[C@@H]3[C@@H](OC(C)=O)[C@]2(OC3(C)C)[C@](C)(O)[C@H]1OC(=O)c1cccnc1`: 8, 3.75 µM and 98.8%.
On to `CC(=O)O[C@H]1C[C@@](C)(O)[C@]23OC(C)(C)[C@H](C[C@H](OC(=O)c4ccco4)[C@]2(C)[C@H]1O)[C@H]3OC(=O)c1ccco1`, for which the lipophilicity (logP) in data set [1] (read-out: LogP) turned out to be 4.3. Also, the Ki in data set [2] (read-out: Ki) was found to be 100 µM. Moreover, the Emax in data set [3] was 100%.
Consider `CC(=O)OC[C@]12[C@@H](OC(=O)c3ccccc3)C[C@@H]3[C@@H](OC(C)=O)[C@]1(OC3(C)C)[C@](C)(O)C[C@H](OC(C)=O)[C@@H]2OC(C)=O`, for which the logP in data set [1] (read-out: LogP) worked out at 5. Also, the Ki in data set [2] (read-out: Ki) was 4.39 µM; in data set [2] (read-out: Log Ki (converted)), 3.47 µM. The Emax in data set [3] came out at 85%.
Consider `CC(=O)O[C@@H]1[C@H]2C[C@H](OC(=O)c3ccco3)[C@]3(C)[C@@H](OC(C)=O)[C@@H](OC(=O)c4ccco4)C[C@@](C)(O)[C@@]13OC2(C)C`, for which the logP in data set [1] (read-out: LogP) came out at 5.1. For the same molecule, in data set [2] (read-out: Ki), the Ki was 4.13 µM. The Emax in data set [3] was 61.7%.
On to `CC(=O)O[C@H]1C[C@@](C)(O)[C@]23OC(C)(C)[C@H]([C@H](OC(=O)c4ccccc4)[C@H](OC(=O)c4ccccc4)[C@]2(CO)[C@H]1OC(C)=O)[C@H]3OC(C)=O`, for which the logP in data set [1] (read-out: LogP) amounted to 6.9. Moreover, the inhibition constant Ki in data set [2] (read-out: Ki) is 7.04 µM. For the same molecule, the Emax in data set [3] turned out to be 73%.
The matching figures for `CCCCCO[C@@H]1[C@@H]2[C@@H](OC(C)=O)[C@@]3(OC2(C)C)[C@@](COC(C)=O)([C@@H](OC(C)=O)CC[C@@]3(C)O)[C@@H]1OC(=O)c1ccccc1`: 7, 1.83 µM and 87.7%.
The matching figures for `CC(=O)OC[C@]12[C@@H](OC(=O)c3ccco3)C[C@@H]3[C@@H](OC(=O)c4ccco4)[C@]1(OC3(C)C)[C@](C)(O)C[C@H](OC(C)=O)[C@@H]2OC(C)=O`: 5.4, 2.44 µM and 76.9%.
The like results for `CC(=O)O[C@H]1C[C@@](C)(O)[C@]23OC(C)(C)[C@H](C[C@H](OC(=O)c4ccco4)[C@]2(C)[C@H]1OC(C)=O)[C@H]3OC(=O)c1ccccc1` were, in that order, 6.1, 8.94 µM and 67.9%.
For the molecule `CC(=O)O[C@H]1[C@@H](O)C[C@@](C)(O)[C@]23OC(C)(C)[C@H](C[C@H](OC(=O)c4ccco4)[C@]12C)[C@H]3OC(=O)c1ccco1`, in data set [1] (read-out: LogP), the logP was found to be 4.3. Further, in data set [2] (read-out: Ki), the inhibition constant Ki is 4.16 µM. The Emax in data set [3] was 51.8%.
As to `CC(=O)O[C@H]1[C@@H](OC(=O)c2ccccc2)C[C@@](C)(O)[C@]23OC(C)(C)[C@H](C[C@H](OC(=O)c4ccco4)[C@]12C)[C@H]3OC(=O)c1ccco1`, the logP in data set [1] (read-out: LogP) came to 7.1. The Ki in data set [2] (read-out: Ki) came out at 0.7 µM. Moreover, the Emax in data set [3] was found to be 93.1%.
Consider `CC(=O)O[C@H]1C[C@@](C)(O)[C@]23OC(C)(C)[C@H](C[C@H](OC(=O)c4ccco4)[C@]2(C)[C@H]1OC(C)=O)[C@H]3O`, for which the logP in data set [1] (read-out: LogP) stood at 3.4. The inhibition constant (Ki) in data set [2] (read-out: Ki) was determined as 17.5 µM. Besides, in data set [3], the Emax stood at 100%.
Consider `CC(=O)OC[C@]12[C@@H](OC(=O)c3ccco3)C[C@@H]3[C@@H](OC(C)=O)[C@]1(OC3(C)C)[C@](C)(O)C[C@H](OC(=O)c1ccco1)[C@@H]2OC(=O)c1ccco1`, for which, in data set [1] (read-out: LogP), the lipophilicity (logP) is 6.5. Also, the Ki in data set [2] (read-out: Ki) was determined as 4.51 µM. The Emax in data set [3] was 99.4%.
The matching figures for `CC(=O)O[C@@H]1[C@H]2C[C@H](OC(=O)c3ccco3)[C@]3(C)[C@@H](OC(C)=O)[C@@H](OC(=O)c4ccccc4)C[C@@](C)(O)[C@@]13OC2(C)C`: 6.1, 2.92 µM and 92.7%.
The matching figures for `CC(=O)O[C@H]1[C@@H](OC(=O)c2ccccc2)C[C@@](C)(O)[C@]23OC(C)(C)[C@H](C[C@H](OC(=O)c4ccco4)[C@]12C)[C@H]3OC(=O)C(F)(F)F`: 6.4, 1.56 µM and 53.3%.
Consider `CC(=O)OC[C@]12[C@H](OC(=O)c3ccccc3)[C@H](OC(=O)c3ccccc3)[C@@H]3[C@@H](OC(C)=O)[C@]1(OC3(C)C)[C@H](C)C[C@H](OC(=O)c1ccccc1)[C@@H]2OC(=O)c1ccccc1`, for which the Ki in data set [2] (read-out: Ki) worked out at 1.98 µM. In addition, in data set [3], the Emax worked out at 29.3%.
For `CC(=O)O[C@H]1C[C@@](C)(O)[C@]23OC(C)(C)[C@H](C[C@H](OC(=O)c4ccco4)[C@]2(C)[C@H]1OC(C)=O)[C@H]3OC(C)=O`, the log partition coefficient (logP) in data set [1] (read-out: LogP) came out at 3.8. Besides, in data set [2] (read-out: Ki), the Ki is 100 µM.
